Source: the supplement of paper PMC6045584
± gives the standard deviation of the averaged measurements.

Legend:
[1] = compound: Cn1cc(C2=Nc3cc(NC(=O)C(N)C4CCCCC4)cc4c3C2=CNNC4=O)cn1; assay: surviving fraction relative to DMSO-only wells; higher = less growth inhibition; conditions: exposure time: 5 days
Outline: (§1)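 At 250–500 cells per well in 384-well plates, log-phase tumour cell lines were seeded and, 24 hours on, exposed continuously for five days to inhibitors at 0.5, 1, 5, 10, 50, 100, 500 and 1000 nM. Viability readout was CellTiter-Glo luminescence, reported as surviving fraction normalised to the median of DMSO-only wells.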

[2] = compound: Nc1nc2[nH]cnc2c(=S)[nH]1 [TIOGUANINE]; assay: as above; conditions: exposure time: 5 days
Outline: as §1

| Test System | surviving fraction ([1]; 0.5 nM) | surviving fraction ([1]; 1 nM) | surviving fraction ([1]; 5 nM) | surviving fraction ([1]; 10 nM) | surviving fraction ([1]; 50 nM) | surviving fraction ([1]; 100 nM) | surviving fraction ([1]; 500 nM) | surviving fraction ([1]; 1000 nM) | surviving fraction ([2]; 0.5 nM) | surviving fraction ([2]; 1 nM) | surviving fraction ([2]; 5 nM) | surviving fraction ([2]; 10 nM) | surviving fraction ([2]; 50 nM) | surviving fraction ([2]; 100 nM) | surviving fraction ([2]; 500 nM) | surviving fraction ([2]; 1000 nM) |
| --- | --- | --- | --- | --- | --- | --- | --- | --- | --- | --- | --- | --- | --- | --- | --- | --- |
| 22RV1 PROSTATE | 1.07 ± 0.021 | 1.08 ± 0.059 | 0.99 ± 0.015 | 1.01 ± 0.02 | 1.03 ± 0.054 | 0.854 ± 0.037 | 0.626 ± 0.064 | 0.489 ± 0.029 | 0.97 ± 0.042 | 0.971 ± 0.042 | 0.99 ± 0.049 | 0.999 ± 0.0061 | 1.06 ± 0.067 | 0.99 ± 0.039 | 0.988 ± 0.079 | 0.94 ± 0.042 |
| 93VU HEADNECK | 0.976 ± 0.077 | 1 ± 0.069 | 1.07 ± 0.02 | 1.09 ± 0.087 | 0.948 ± 0.033 | 0.945 ± 0.064 | 0.741 ± 0.044 | 0.388 ± 0.05 | 0.831 ± 0.039 | 0.872 ± 0.088 | 1.03 ± 0.082 | 1.08 ± 0.094 | 1.06 ± 0.015 | 1.06 ± 0.11 | 0.798 ± 0.042 | 0.768 ± 0.081 |
| A549 LUNG | 1.04 ± 0.034 | 1.08 ± 0.082 | 1.03 ± 0.021 | 1.03 ± 0.018 | 1.08 ± 0.048 | 1.02 ± 0.033 | 1.06 ± 0.029 | 1.01 ± 0.02 | 0.946 ± 0.045 | 0.955 ± 0.025 | 0.96 ± 0.046 | 0.952 ± 0.051 | 0.976 ± 0.045 | 0.999 ± 0.064 | 1.01 ± 0.038 | 0.973 ± 0.056 |
| ASKA SYNOVIAL | 0.985 ± 0.08 | 1 ± 0.075 | 0.98 ± 0.028 | 0.992 ± 0.048 | 0.65 ± 0.054 | 0.355 ± 0.028 | 0.174 ± 0.013 | 0.229 ± 0.0066 | 1.07 ± 0.051 | 1.09 ± 0.058 | 1.13 ± 0.08 | 1.08 ± 0.032 | 1.1 ± 0.068 | 1.073 ± 0.007 | 1.07 ± 0.044 | 1.03 ± 0.011 |
| BT549 BREAST | 1.07 ± 0.11 | 0.943 ± 0.079 | 0.957 ± 0.21 | 1.05 ± 0.14 | 0.659 ± 0.073 | 0.371 ± 0.012 | 0.0533 ± 0.008 | 0.027 ± 0.006 | 1.04 ± 0.17 | 1.05 ± 0.22 | 1.09 ± 0.12 | 1.12 ± 0.11 | 1.17 ± 0.14 | 0.917 ± 0.35 | 0.86 ± 0.42 | 0.996 ± 0.24 |
| C33A CERVIX | 0.878 ± 0.066 | 0.99 ± 0.041 | 1.02 ± 0.094 | 1.03 ± 0.036 | 0.952 ± 0.046 | 0.833 ± 0.063 | 0.335 ± 0.011 | 0.0597 ± 0.025 | 0.807 ± 0.079 | 0.711 ± 0.052 | 0.9503 ± 0.0032 | 0.91 ± 0.048 | 1.03 ± 0.092 | 1.02 ± 0.023 | 0.707 ± 0.043 | 0.648 ± 0.061 |
| CAL51 BREAST | 0.889 ± 0.037 | 0.973 ± 0.041 | 0.945 ± 0.052 | 0.903 ± 0.037 | 0.962 ± 0.079 | 0.875 ± 0.048 | 0.484 ± 0.0085 | 0.276 ± 0.026 | 0.984 ± 0.03 | 0.965 ± 0.017 | 0.999 ± 0.018 | 1 ± 0.031 | 1.03 ± 0.049 | 1.06 ± 0.038 | 0.992 ± 0.051 | 0.979 ± 0.026 |
| CAL72 BONE | 1.04 ± 0.03 | 1.02 ± 0.038 | 1.02 ± 0.019 | 1.02 ± 0.04 | 0.937 ± 0.052 | 0.836 ± 0.043 | 0.111 ± 0.011 | 0.147 ± 0.01 | 1.08 ± 0.029 | 1.07 ± 0.027 | 1.09 ± 0.073 | 1.1 ± 0.056 | 1.14 ± 0.034 | 1.124 ± 0.0085 | 1.13 ± 0.029 | 1.13 ± 0.043 |
| CAL120 BREAST | 0.966 ± 0.012 | 1.02 ± 0.019 | 1.01 ± 0.013 | 1.01 ± 0.038 | 0.966 ± 0.029 | 0.856 ± 0.044 | 0.375 ± 0.02 | 0.24 ± 0.023 | 0.912 ± 0.028 | 0.943 ± 0.014 | 0.9412 ± 0.0032 | 0.919 ± 0.028 | 0.95 ± 0.021 | 0.939 ± 0.02 | 0.88 ± 0.035 | 0.826 ± 0.036 |
| CASKI CERVIX | 0.918 ± 0.028 | 0.962 ± 0.082 | 0.92 ± 0.028 | 0.949 ± 0.038 | 0.511 ± 0.043 | 0.251 ± 0.071 | 0.057 ± 0.0095 | 0.0573 ± 0.0038 | 0.902 ± 0.091 | 0.902 ± 0.056 | 0.934 ± 0.029 | 0.952 ± 0.032 | 0.9923 ± 0.0092 | 1.01 ± 0.014 | 0.962 ± 0.037 | 0.839 ± 0.072 |
| CME SYNOVIAL | 1.243 ± 0.0098 | 1.27 ± 0.03 | 1.3 ± 0.06 | 1.23 ± 0.059 | 1.13 ± 0.049 | 1.02 ± 0.065 | 0.733 ± 0.036 | 0.414 ± 0.0087 | 1.07 ± 0.067 | 1.22 ± 0.12 | 1.16 ± 0.051 | 1.22 ± 0.03 | 1.29 ± 0.021 | 1.32 ± 0.19 | 1.24 ± 0.054 | 1.08 ± 0.18 |
| COLO320DM LARGE INTESTINE | 0.957 ± 0.12 | 1.09 ± 0.15 | 0.97 ± 0.076 | 1.08 ± 0.11 | 1.01 ± 0.23 | 0.954 ± 0.098 | 0.877 ± 0.13 | 0.664 ± 0.053 | 1.13 ± 0.03 | 1.1 ± 0.056 | 1.003 ± 0.0076 | 1.09 ± 0.067 | 1.03 ± 0.019 | 1.09 ± 0.049 | 1.078 ± 0.0053 | 1.04 ± 0.049 |
| G292 BONE | 1.03 ± 0.019 | 0.968 ± 0.051 | 1.02 ± 0.077 | 1.04 ± 0.029 | 0.631 ± 0.018 | 0.315 ± 0.0083 | 0.11 ± 0.0059 | 0.0638 ± 0.0015 | 0.964 ± 0.034 | 0.998 ± 0.045 | 1 ± 0.021 | 0.984 ± 0.036 | 1.01 ± 0.023 | 1.02 ± 0.016 | 0.948 ± 0.011 | 0.949 ± 0.035 |
| H23 LUNG | 1.05 ± 0.052 | 1.07 ± 0.092 | 1.09 ± 0.046 | 1.074 ± 0.0038 | 1.11 ± 0.1 | 1.1 ± 0.096 | 1.02 ± 0.084 | 0.944 ± 0.031 | 0.962 ± 0.017 | 0.966 ± 0.044 | 0.974 ± 0.024 | 0.993 ± 0.046 | 0.997 ± 0.058 | 1.04 ± 0.03 | 0.964 ± 0.02 | 0.966 ± 0.025 |
| HCC38 BREAST | 1 ± 0.33 | 1.06 ± 0.23 | 0.978 ± 0.3 | 0.92 ± 0.11 | 0.114 ± 0.036 | 0.031 ± 0.0079 | 0.027 ± 0.0027 | 0.021 ± 0.0017 | 1.15 ± 0.31 | 1.3 ± 0.38 | 1.15 ± 0.29 | 1.28 ± 0.099 | 1.1 ± 0.24 | 1.08 ± 0.062 | 1.08 ± 0.32 | 0.95 ± 0.15 |
| HCC70 BREAST | 1.04 ± 0.035 | 1.19 ± 0.054 | 1.13 ± 0.046 | 1.09 ± 0.063 | 0.758 ± 0.028 | 0.313 ± 0.076 | 0.0723 ± 0.014 | 0.042 ± 0.0052 | 1.05 ± 0.03 | 0.896 ± 0.043 | 1.03 ± 0.069 | 1 ± 0.013 | 1.04 ± 0.13 | 1.02 ± 0.052 | 1.04 ± 0.059 | 1.04 ± 0.1 |
